Measured values reported in patent publication EP1800684A1, “Novel alkyl phospholipid derivatives and uses thereof” (Zentaris GmbH, priority 2005, dated 2007).
In brackets after ≈: the same amount, converted by molar mass. Like-named read-outs stand apart in the source and are kept apart here. One block for each molecule: values may come before it.

Assays:
Assay type in all cases: cell-based
[1] = test system: Plasmodium falciparum (strain 3D7); experiment: In vitro drug susceptibility assay, protozoon D (3[H]-hypoxanthine method)
Method: (§1) Plasmodium falciparum strain K1 and strain 3D7 parasites were cultured according to Trager W and Jensen JB (Science 1976, 193: 673-675). In vitro drug susceptibility assays with the test compounds were carried out according to Korsinczky M et al. (Antimicrobial agents and chemotherapy 2000, 44(8): 2100-2108) and Fivelman QL et al. (Antimicrobial agents and chemotherapy 2004, 48(11): 4097-4102) using a ^3[H]-hypoxanthine radioisotope method. ED50 values were calculated with Msxlfit (IDBS).
(§2) The following protozoa were assessed: • A) Trypanosoma cruzi (Tulahuan-LACZ amstigotes in PEM, Lorente SO et al., Antimicrobial agents and chemotherapy 2004, 48(8): 2937-2950; Buckner et al., Infection and Immunity 1999, 67(1): 403-409; Buckner et al., Antimicrobial Agents and Chemotherapy 1996, 40(11): 2592-2597) • B) Trypanosoma brucei rhodesiense (strain STIB900, Lorente SO et al., Antimicrobial agents and chemotherapy 2004, 48(8): 2937-2950; Habtemariam S, BMC Pharmacology 2003, 3:6) • C) Plasmodium falciparum (strain K1, Korsinczky M et al., Antimicrobial agents and chemotherapy 2000, 44(8): 2100-2108; Thaitong S and Beale GH, Trans. R. Soc. Trop. Med. Hyg. 1981, 75: 271-273; Trager W and Jensen JB, Science 1976, 193: 673-675) • D) Plasmodium falciparum (strain 3D7, Mu et al., PLoS Biology 2005, 3(10): e335)

[2] = test system: Candida albicans (strain TS3); experiment: Anti-fungal susceptibility test (microdilution), fungus C; conditions: no visible growth after 48 hours at 35° C
Method: (§3) The antifungal activities of the test compounds (compounds of the invention and known prior art compounds) were measured according to standard microdilution methods (Cryptococcus/Aspergillus: Ghannoum et al., Journal of Clinical Microbiology 1992, 30 (11): 2881-2886; Candida: Reference method for broth dilution susceptibility testing of yeast: proposed standard, NCCLS document M27-P, National Committee for Clinical Laboratory Standards 1992, Villanova, Pa).
(§4) A serial dilution series starting from 64 µg/mL test compound per well down to 0.125 µg/mL test compound per well was applied for each test compound on each fungus. The MIC of each compound was defined as the concentration which produces no visible growth after 48 hours (Candida) and 72 hours (Cryptococcus, Aspergillus) of culture at 35° C.
(§5) The following fungi were assessed: • A) Candida albicans (ATCC 10231) • B) Candida albicans (ATCC 90028) • C) Candida albicans (strain TS3, Shrikantha et al., Journal of Bacteriology 2000, 182(6):1580-1591) • D) Candida parapsilosis (ATCC 22019) • E) Cryptocoocus neoformans (ATCC 90112) • F) Cryptocoocus neoformans (strain H99; Ganendren et al., Antimicrobial Agents and Chemotherapy, 2004, 48(5):1561-1569) • G) Cryptocoocus gattii (ATCC 32608) • H) Aspergillus fumigatus (ATCC 204305) • I) Aspergillus fumigatus (strain 322-384)

[3] = test system: Plasmodium falciparum (strain K1); experiment: In vitro drug susceptibility assay, protozoon C (3[H]-hypoxanthine method)
Method: as §1, §2

[4] = test system: Aspergillus fumigatus (ATCC 204305); experiment: Anti-fungal susceptibility test (microdilution), fungus H
Method: as §3, §4, §5

[5] = test system: Cryptocoocus neoformans (ATCC 90112); experiment: Anti-fungal susceptibility test (microdilution), fungus E
Method: as §3, §4, §5

[6] = test system: Candida albicans (ATCC 10231); experiment: Anti-fungal susceptibility test (microdilution), fungus A
Method: as §3, §4, §5

[7] = test system: Cryptocoocus gattii (ATCC 32608); experiment: Anti-fungal susceptibility test (microdilution), fungus G; conditions: fungus G; no visible growth after 72 hours at 35° C; read-out: MIC
Method: as §3, §4, §5

[8] = test system: Trypanosoma brucei rhodesiense (strain STIB900); experiment: In vitro drug activity assay, protozoon B (bloodstream form trypomastigotes, Alamar Blue); conditions: incubated for 72 hours
Method: Trypanosoma brucei rhodesiense STIB900 bloodstream form trypomastigotes were maintained in HMI-18 medium (Hirumi H, Hirumi K, J Parasitol. 1989, 75(6):985-989) with 15% heat-inactivated fetal calf serum at 37°C, 5% CO2, humidified atmosphere. Trypomastigotes were washed and resuspended in fresh medium at a concentration of 2 x 10^5 mL. Test compounds were given to the trypomastigotes and plates were incubated for 72 hours at 37°C, 5% CO2, humidified atmosphere. At 72 hours the plates were assessed microscopically before Alamar Blue was added (Raz et al., Acta Trop. 1997, 68: 139-147). Plates were read after 5 to 6 hours at EX/EM 530/585 nm with a filter cutoff at 550 nm. ED50 values were calculated with Msxlfit (IDBS).
as §2

[9] = test system: Cryptocoocus neoformans (strain H99); experiment: Anti-fungal susceptibility test (microdilution), fungus F; conditions: fungus F; no visible growth after 72 hours at 35° C; read-out: MIC
Method: as §3, §4, §5

[10] = test system: Aspergillus fumigatus (strain 322-384); experiment: Anti-fungal susceptibility test (microdilution), fungus I; conditions: no visible growth after 72 hours at 35° C
Method: as §3, §4, §5

[11] = test system: Trypanosoma cruzi (Tulahuan-LACZ amstigotes in PEM); experiment: In vitro drug activity assay, protozoon A (amastigotes in murine peritoneal macrophages, CPRG readout); conditions: infected macrophages exposed for 3 days
Method: Murine (CD1) peritoneal macrophages were harvested 24 hours after starch induction and dispensed into 96-well plates at a concentration of 4 x 10^5 mL. After 24 hours, the cells were infected with Trypanosoma cruzi Tulahuan LAC-Z amastigotes (grown and cultured according to Buckner et al., Infection and Immunity 1999, 67(1): 403-409). 24 hours later, the infected cells were exposed to the test compounds (compounds of the invention as well as known prior art compounds) for 3 days and 50 µL of 500 µM CPRG-1% Nonidet P-40 was added to each well. The plates were read after 2 to 5 hours at 570 nm (Buckner et al., Antimicrobial Agents and Chemotherapy 1996, 40(11): 2592-2597). ED50 values were calculated with Msxlfit (IDBS).
as §2

[12] = test system: Candida parapsilosis (ATCC 22019); experiment: Anti-fungal susceptibility test (microdilution), fungus D
Method: as §3, §4, §5

[13] = test system: Candida albicans (ATCC 90028); experiment: Anti-fungal susceptibility test (microdilution), fungus B
Method: as §3, §4, §5

[14] = test system: KB/HeLa (ATCC CCL17, human cervix carcinoma); experiment: XTT cytotoxicity assay, KB/HeLa cells; conditions: 48 h, 2 days of continuous drug exposure
Method: (§6) Human tumor cell lines KB/HeLa (ATCC CCL17, human cervix carcinoma), PC3 (ATCC CRL1435, human prostate carcinoma) and RKOp21 (human colon adenocarcinoma) cells were used in an automated XTT screening assay for the assessment of cytotoxicity.
(§7) The XTT assay quantifies cellular metabolic activity which correlates with cell viability and cell number. Test compounds (selected compounds of the invention and known substances as controls) are dissolved in culture medium at 600µM and added to the tumor cells in 10 different concentrations in a semi-logarithmic fashion starting from 100 µM as highest concentration.
(§8) 48h later cellular metabolic activity of cells treated with test compounds is quantified by measurement of the absorbance at 490nm (conversion of XTT dye) in comparison to untreated control cells (100% viability).
(§9) KB/HeLa and PC3 cells were cultivated in RPMI medium supplemented with 10% heat inactivated fetal calf serum, 2 mM glutamine, 100 U/ml penicillin, and 100 µg/ml streptomycin. RKOp21 cells were grown in DMEM supplemented with 10% heat inactivated fetal calf serum, 2 mM glutamine, 100 U/ml penicillin, and 100 µg/ml streptomycin. All cells were cultured at 37°C in 5% CO2 humidified air.
(§10) On the first day of the experiment cells were harvested from exponential phase cultures by trypsination, counted and plated into 96 well flat-bottom micro titer plates depending on the cell line as listed below:
(§11) After a 24h recovery to allow the cells to resume exponential growth, the test compounds were diluted immediately prior to use and transferred in 25µl volume to the wells.
(§12) Following 2 days of continuous drug exposure 50µl of freshly prepared XTT-PMS solution (2% […] PMS in PBS + 98% 1 mg/ml XTT in RPMI 1640 without phenol red) was added to the wells. To measure the proportion of living cells, the cells were incubated for 3 h with XTT-PMS reagent at 37°C, 5% CO2, humidified atmosphere allowing to form the formazan salt. The amount of soluble formazan salt produced by cellular reduction of XTT is quantified by measuring the absorbance at 490nm using the Biomek® 2000 ELISA plate reader.
(§13) %-inhibition (cytotoxicity) of each test compound was calculated in relation to untreated control cells. Inhibition curves were generated and IC50 values calculated by using GraphPad Prism.

[15] = test system: RKOp21 (human colon adenocarcinoma) cells; experiment: XTT cytotoxicity assay, RKOp21 cells; conditions: 48 h, 2 days of continuous drug exposure
Method: as §6, §7, §8, §9, §10, §11, §12, §13

[16] = test system: PC3 (ATCC CRL1435, human prostate carcinoma); experiment: XTT cytotoxicity assay, PC3 cells; conditions: PC-3, 48 h, 2 days of continuous drug exposure
Method: as §6, §7, §8, §9, §10, §11, §12, §13

[17] = Candida albicans, read-out: MIC
[18] = Aspergillus fumigatus, ATCC204305, no visible growth after 72 hours at 35° C, read-out: MIC
[19] = fungus E, no visible growth after 72 hours at 35° C, read-out: MIC
[20] = Candida albicans, ATCC10231, no visible growth after 48 hours at 35° C, read-out: MIC
[21] = Aspergillus fumigatus, read-out: MIC
[22] = ATCC22019, no visible growth after 48 hours at 35° C, read-out: MIC
[23] = Candida albicans, ATCC90028, no visible growth after 48 hours at 35° C, read-out: MIC
[24] = no visible growth after 48 hours at 35° C

Compound: CCCCCCCCCCCCCCCCOP(=O)([O-])OC1CC[N+](C)(Cc2ccccc2)CC1 (stereo not drawn) [Compound 1, Phosphoric acid 1-benzyl-1-methyl-piperidin-4-yl ester hexadecyl ester]
ED50 (µg/mL) [1]: 9,97 µg/mL
MIC [2, 17]: 1.5 µg/mL (≈ 2.94 µM)
ED50 (µg/mL) [3]: 6,93 µg/mL
MIC [4, 18]: 2 µg/mL (≈ 3.92 µM)
MIC [5, 19]: 1.5 µg/mL (≈ 2.94 µM)
MIC [6, 20]: 2 µg/mL (≈ 3.92 µM)
MIC [7]: 1 µg/mL (≈ 1.96 µM)
ED50 (µg/mL) [8]: 18,80 µg/mL
MIC [9]: 2 µg/mL (≈ 3.92 µM)
MIC [10, 21]: 2 µg/mL (≈ 3.92 µM)
ED50 (µg/mL) [11]: 1,71 µg/mL
MIC [12, 22]: 3 µg/mL (≈ 5.89 µM)
MIC [13, 23]: 1 µg/mL (≈ 1.96 µM)

Compound: CCCCCCCCCCCCCCCCOP(=O)([O-])OC1CC[N+](C)(CCc2ccccc2)CC1 (stereo not drawn) [Compound 4, Phosphoric acid 1-methyl-1-phenethyl-piperidin-4-yl ester hexadecyl ester]
ED50 (µg/mL) [1]: 15,32 µg/mL
ED50 (µg/mL) [3]: 5,44 µg/mL
ED50 (µg/mL) [8]: 12,29 µg/mL

MIC [2, 17]: 1 µg/mL
MIC [4, 18]: 2 µg/mL
MIC [5, 19]: 2 µg/mL
MIC [6, 20]: 0.75 µg/mL
MIC [7]: 0.75 µg/mL
MIC [9]: 1.5 µg/mL
MIC [10, 21]: 2 µg/mL
MIC [12, 22]: 0.75 µg/mL
MIC [13, 23]: 0.75 µg/mL
Compound: CCCCCCCCCCCCCCCCOCCCOP(=O)([O-])OCC[N+](C)(C)C [Compound 8, Phosphoric acid 3-hexadecyloxy-propyl ester 2-trimethylammonium-ethyl ester]

Compound: CCCCCCCC/C=C\CCCCCCCCCCCCOP(=O)([O-])OC1CC[N+](C)(C)CC1 [Compound 17, Phosphoric acid 1,1-dimethyl-piperidin-4-yl ester (Z)-docos-13-enyl ester]
IC50 [14]: 16.6 µM
IC50 [15]: 32.5 µM
IC50 [16]: 18.3 µM

Compound: CCCCCCCC/C=C\CCCCCCCCOP(=O)(O)OCCN1CCCCC1 [Compound 19, Phosphoric acid (Z)-octadec-9-enyl ester 2-piperidin-1-yl-ethyl ester]
IC50 [14]: > 100 µM
IC50 [15]: > 100 µM
IC50 [16]: > 100 µM

Compound: CCCCCCCCCCOCCOCCOP(=O)([O-])OCC[N+]1(C)CCCCC1 [Compound 20, Phosphoric acid 2-(2-decyloxy-ethoxy)-ethyl ester 2-(1-methylpiperidin-1-yl)-ethyl ester]
IC50 [14]: > 100 µM
IC50 [15]: > 100 µM
IC50 [16]: > 100 µM

Compound: CCCCCCCCCCCCCCCCCCOP(=O)([O-])OCC[As+](C)(C)C [Compound 22]
MIC [2]: 1 µg/mL
MIC ([4]; no visible growth after 72 hours at 35° C): 4 µg/mL
MIC [6, 24]: 0.5 µg/mL
MIC [10]: 2 µg/mL
MIC [12, 24]: 1 µg/mL
MIC [13, 24]: 1 µg/mL

MIC [2, 17]: > 64 µg/mL
MIC [4, 18]: > 64 µg/mL
MIC ([5]; 72 h): 4 µg/mL (≈ 8.17 µM)
MIC [6, 20]: > 64 µg/mL
MIC [7]: 1.5 µg/mL (≈ 3.06 µM)
MIC [9]: 3 µg/mL (≈ 6.13 µM)
MIC [10, 21]: > 64 µg/mL
MIC [12, 22]: > 64 µg/mL
MIC [13, 23]: > 64 µg/mL
Compound: CCCCCCCC/C=C\CCCCCCCCCCCCOP(=O)([O-])OCC[N+](C)(C)C [ErPC, (13Z)-docosenylphosphocholine, reference compound]

Compound: O=C(Cn1ccnc1[N+](=O)[O-])NCc1ccccc1 [benznidazole, Benznidazole, reference compound]
ED50 (µg/mL) [11]: 0,22 µg/mL

Compound: CCCCCCCCCCCCCCCCOP(=O)([O-])OCC[N+](C)(C)C [miltefosine, reference compound]
IC50 [14]: 8.66 µM
ED50 (µg/mL) [11]: 0,63 µg/mL
IC50 [15]: 18 µM
IC50 [16]: 9.39 µM

Compound: CCCCCCCCCCCCCCCCCCOP(=O)([O-])OC1CC[N+](C)(C)CC1 [perifosine, octadecyl-1,1-dimethyl-piperidino-4-yl-phosphate, reference compound]
IC50 [14]: 2.37 µM
IC50 [15]: 3.31 µM
IC50 [16]: 3.22 µM
